Results: paper PMC11842024, “Reversible male contraception by targeted inhibition of serine/threonine kinase 33” (Science (New York, N.Y.), 2024)

Experiments:
[1] = Metabolic stability assay in liver microsomes (MLM); assay type: in vitro ADME, mouse; settings: for half-life at 2 µM: mouse, liver microsomes
Experimental: (§1) Metabolic stability assay in liver microsomes. The stabilities of CDD-2110, CDD-2211, CDD-2212, CDD-2807, and CDD-3348 in liver microsomes with/without Uridine Diphosphate Glucuronic Acid (UDP-GA, a cofactor of UDP-glucuronosyltransferases) were performed and half-life was calculated as previously reported (36). Briefly, each CDD compound (2.0 μM) was incubated in the mouse or human liver microsomes (0.5 mg protein/mL) at 37°C in 1× PBS fortified with NADPH (1.0 mM) and with/without UDP-GA (2.5 mM). Alamethicin (25 µg/mL) as a pore forming agent was used for the glucuronidation (Table S2A). The samples were collected at specific time-points 0, 30, and 60 min in duplicate. The reactions were terminated by adding equivalent volume of ice-cold methanol (CH3OH) and vortexed. After centrifugation at 15000 g for 10 min, 3.0 μL of the supernatant was analyzed by Thermo TSQ Quantis MS coupled with a Thermo Vanquish UHPLC (San Jose, CA) equipped with a Luna C18 column (1 mm × 50 mm, 1.6 µm, Phenomenex, Torrance, CA). The column temperature was maintained at 40°C. CDD-2807 was monitored under the selected reaction monitoring (SRM) mode coupled with a positive electrospray ionization (ESI) source. The SRM ion pairs were 447→321 for CDD-2807.

[2] = Metabolic stability assay in liver microsomes (HLM); assay type: in vitro ADME, human
Experimental: as §1

[3] = target: T1, AAK1 (Homo sapiens, UniProt Q2M2I8); test: NanoBRET K192 assay (Promega); assay type: cell-based; settings: HEK293 cells
T1 construct: against 192 full-length protein kinases in human embryonic kidney 293 (HEK293) cells; host or cells: HEK293
Experimental: (§2) NanoBRET Target Engagement K192 assay. HEK293 cells (ATCC) were cultured in DMEM (Gibco) + 10% FBS (Seradigm) and incubated in a humidified 37°C/5% CO2 incubator. The NanoBRET Target Engagement K192 Kinase Selectivity System (Promega) contains 192 unique transfection-ready NanoLuc/Kinase fusions, pre-diluted in either transfection carrier DNA or relevant cyclin DNA. These NanoLuc/Kinase fusion constructs were transfected into HEK293 cells using Fugene HD (Promega) according to the manufacturer’s protocol. Briefly, 10 µL of a 20 µg/mL DNA solution was added to white, TC-treated 96-well assay plates (Corning), followed by 30 µL of a diluted Fugene HD solution (20 µL Fugene/1 mL Opti-MEM). After transfection complex formation, HEK293 cells were resuspended at 3.3 × 105 c/mL in Opti-MEM + 1% FBS and added at a volume of 60 µL per well, to result in approximately 20000 cells/well. Cells were incubated in a humidified 37°C/5% CO2 incubator for 20 hours. Tracer K-10 (Promega) was prepared at a 100× concentration in DMSO (Sigma) and diluted to a working concentration of 10× in tracer dilution buffer (12.5 mM HEPES, 31.25% PEG400, pH 7.5) (Promega). Test compounds were prepared as concentrated stock solutions in DMSO and diluted in Opti-MEM to prepare 10× working stocks. Cells were equilibrated with test compounds and Tracer K-10 for 2 hours prior to BRET measurements. For target engagement analysis, Tracer K-10 was added to cells at one of 4 […]
(§3) manufacturer’s protocol. To measure BRET, NanoBRET NanoGlo Substrate and Extracellular NanoLuc Inhibitor (Promega) were added according to the manufacturer’s protocol, and filtered luminescence was measured on a GloMax Discover luminometer equipped with 450 nm BP filter (donor) and 600 nm LP filter (acceptor), using 0.5 s integration time. Milli-BRET units are calculated by multiplying the raw BRET units by 1000.
(§4) For Fractional Occupancy determination, the following equation was used:
(§5) % Occupancy = [1-(X-Z)/(Y-Z)]×100
(§6) Where X = BRET in the presence of the test compound and Tracer K10, Y = BRET in the presence of Tracer K10 only, and Z = Full occupancy, or BRET in the absence of the test compound and […]
(§7) Tracer K10. […]

[4] = target: T2, BMP2K (Homo sapiens, UniProt Q9NSY1); test: NanoBRET K192 assay (Promega); assay type: cell-based; settings: HEK293 cells
T2 construct: against 192 full-length protein kinases in human embryonic kidney 293 (HEK293) cells; host or cells: HEK293
Experimental: as §2, §3, §4, §5, §6, §7

[5] = target: T3, CSNK1G2 (Homo sapiens, UniProt P78368); test: NanoBRET K192 assay (Promega); assay type: cell-based; settings: HEK293 cells
T3 construct: against 192 full-length protein kinases in human embryonic kidney 293 (HEK293) cells; host or cells: HEK293
T3 sequence (P78368 whole entry): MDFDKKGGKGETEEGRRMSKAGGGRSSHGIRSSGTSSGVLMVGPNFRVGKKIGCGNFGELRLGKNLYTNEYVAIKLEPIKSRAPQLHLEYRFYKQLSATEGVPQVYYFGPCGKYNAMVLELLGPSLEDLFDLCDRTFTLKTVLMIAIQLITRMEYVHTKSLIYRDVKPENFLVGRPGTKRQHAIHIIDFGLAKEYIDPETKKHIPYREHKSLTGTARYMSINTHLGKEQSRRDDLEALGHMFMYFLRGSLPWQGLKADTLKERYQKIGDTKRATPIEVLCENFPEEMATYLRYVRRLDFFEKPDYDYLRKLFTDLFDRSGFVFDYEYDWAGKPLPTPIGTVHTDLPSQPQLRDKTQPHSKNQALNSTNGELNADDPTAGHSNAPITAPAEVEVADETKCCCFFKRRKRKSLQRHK
Experimental: as §2, §3, §4, §5, §6, §7

[6] = target: T4, EPHA1 (Homo sapiens, UniProt P21709); test: NanoBRET K192 assay (Promega); assay type: cell-based; settings: HEK293 cells
T4 construct: against 192 full-length protein kinases in human embryonic kidney 293 (HEK293) cells; host or cells: HEK293
T4 sequence (P21709 26-976): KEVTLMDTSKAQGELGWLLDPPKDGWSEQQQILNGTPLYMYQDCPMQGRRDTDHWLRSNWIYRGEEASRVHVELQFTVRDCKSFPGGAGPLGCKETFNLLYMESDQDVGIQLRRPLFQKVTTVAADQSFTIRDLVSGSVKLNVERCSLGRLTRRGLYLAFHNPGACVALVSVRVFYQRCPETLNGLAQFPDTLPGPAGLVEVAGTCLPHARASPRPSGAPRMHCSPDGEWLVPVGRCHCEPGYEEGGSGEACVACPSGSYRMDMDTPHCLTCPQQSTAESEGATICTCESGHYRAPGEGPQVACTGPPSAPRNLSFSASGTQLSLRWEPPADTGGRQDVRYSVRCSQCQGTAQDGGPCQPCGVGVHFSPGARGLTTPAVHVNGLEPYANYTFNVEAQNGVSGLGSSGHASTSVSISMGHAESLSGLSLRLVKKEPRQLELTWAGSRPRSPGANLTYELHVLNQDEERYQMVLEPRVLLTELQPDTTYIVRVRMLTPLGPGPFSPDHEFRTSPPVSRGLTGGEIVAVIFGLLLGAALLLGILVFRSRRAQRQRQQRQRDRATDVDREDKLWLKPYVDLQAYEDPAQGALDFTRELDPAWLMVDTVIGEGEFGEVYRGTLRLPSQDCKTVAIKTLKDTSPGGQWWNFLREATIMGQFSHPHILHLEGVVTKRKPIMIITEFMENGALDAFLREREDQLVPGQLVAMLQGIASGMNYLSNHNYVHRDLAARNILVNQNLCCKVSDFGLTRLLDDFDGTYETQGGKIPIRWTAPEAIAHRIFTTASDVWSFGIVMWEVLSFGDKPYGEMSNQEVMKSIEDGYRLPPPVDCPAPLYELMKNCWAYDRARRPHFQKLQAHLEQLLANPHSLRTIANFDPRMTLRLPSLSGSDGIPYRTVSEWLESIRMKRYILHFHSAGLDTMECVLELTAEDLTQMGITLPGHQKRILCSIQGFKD
Experimental: as §2, §3, §4, §5, §6, §7

[7] = target: T5, FER (Homo sapiens, UniProt P16591); test: NanoBRET K192 assay (Promega); assay type: cell-based; settings: HEK293 cells
T5 construct: against 192 full-length protein kinases in human embryonic kidney 293 (HEK293) cells; host or cells: HEK293
T5 sequence (P16591 whole entry): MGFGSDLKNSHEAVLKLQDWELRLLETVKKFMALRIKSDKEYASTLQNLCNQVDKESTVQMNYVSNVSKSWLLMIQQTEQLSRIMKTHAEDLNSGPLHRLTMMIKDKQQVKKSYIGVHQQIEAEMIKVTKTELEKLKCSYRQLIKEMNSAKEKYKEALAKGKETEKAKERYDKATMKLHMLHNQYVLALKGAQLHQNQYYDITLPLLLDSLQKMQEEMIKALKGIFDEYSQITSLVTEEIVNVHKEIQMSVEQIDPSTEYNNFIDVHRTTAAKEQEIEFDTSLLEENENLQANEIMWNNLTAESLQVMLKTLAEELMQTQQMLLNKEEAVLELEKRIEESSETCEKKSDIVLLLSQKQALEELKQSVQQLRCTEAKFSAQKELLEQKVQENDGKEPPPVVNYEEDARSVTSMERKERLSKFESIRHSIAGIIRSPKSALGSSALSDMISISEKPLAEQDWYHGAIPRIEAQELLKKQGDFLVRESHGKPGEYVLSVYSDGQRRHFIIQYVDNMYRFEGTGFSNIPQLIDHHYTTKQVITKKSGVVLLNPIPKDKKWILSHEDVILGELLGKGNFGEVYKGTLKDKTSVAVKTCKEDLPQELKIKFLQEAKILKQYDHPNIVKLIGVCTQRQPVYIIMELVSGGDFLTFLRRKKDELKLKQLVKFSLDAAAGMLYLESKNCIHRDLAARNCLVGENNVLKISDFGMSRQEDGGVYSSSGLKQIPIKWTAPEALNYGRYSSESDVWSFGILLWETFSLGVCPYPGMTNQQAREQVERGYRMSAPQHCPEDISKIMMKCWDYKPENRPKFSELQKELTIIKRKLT
Experimental: as §2, §3, §4, §5, §6, §7

[8] = target: T6, FLT3 (Homo sapiens, UniProt P36888); test: NanoBRET K192 assay (Promega); assay type: cell-based; settings: HEK293 cells
T6 construct: against 192 full-length protein kinases in human embryonic kidney 293 (HEK293) cells; host or cells: HEK293
Experimental: as §2, §3, §4, §5, §6, §7

[9] = target: T7, GAK (Homo sapiens, UniProt O14976); test: NanoBRET K192 assay (Promega); assay type: cell-based; settings: HEK293 cells
T7 construct: against 192 full-length protein kinases in human embryonic kidney 293 (HEK293) cells; host or cells: HEK293
Experimental: as §2, §3, §4, §5, §6, §7

[10] = target: T8, MAP4K2 (Homo sapiens, UniProt Q12851); test: NanoBRET K192 assay (Promega); assay type: cell-based; settings: HEK293 cells
T8 construct: against 192 full-length protein kinases in human embryonic kidney 293 (HEK293) cells; host or cells: HEK293
Experimental: as §2, §3, §4, §5, §6, §7

[11] = target: T9, NTRK1 (Homo sapiens, UniProt P04629); test: NanoBRET K192 assay (Promega); assay type: cell-based; settings: HEK293 cells
T9 construct: against 192 full-length protein kinases in human embryonic kidney 293 (HEK293) cells; host or cells: HEK293
T9 sequence (P04629 33-796): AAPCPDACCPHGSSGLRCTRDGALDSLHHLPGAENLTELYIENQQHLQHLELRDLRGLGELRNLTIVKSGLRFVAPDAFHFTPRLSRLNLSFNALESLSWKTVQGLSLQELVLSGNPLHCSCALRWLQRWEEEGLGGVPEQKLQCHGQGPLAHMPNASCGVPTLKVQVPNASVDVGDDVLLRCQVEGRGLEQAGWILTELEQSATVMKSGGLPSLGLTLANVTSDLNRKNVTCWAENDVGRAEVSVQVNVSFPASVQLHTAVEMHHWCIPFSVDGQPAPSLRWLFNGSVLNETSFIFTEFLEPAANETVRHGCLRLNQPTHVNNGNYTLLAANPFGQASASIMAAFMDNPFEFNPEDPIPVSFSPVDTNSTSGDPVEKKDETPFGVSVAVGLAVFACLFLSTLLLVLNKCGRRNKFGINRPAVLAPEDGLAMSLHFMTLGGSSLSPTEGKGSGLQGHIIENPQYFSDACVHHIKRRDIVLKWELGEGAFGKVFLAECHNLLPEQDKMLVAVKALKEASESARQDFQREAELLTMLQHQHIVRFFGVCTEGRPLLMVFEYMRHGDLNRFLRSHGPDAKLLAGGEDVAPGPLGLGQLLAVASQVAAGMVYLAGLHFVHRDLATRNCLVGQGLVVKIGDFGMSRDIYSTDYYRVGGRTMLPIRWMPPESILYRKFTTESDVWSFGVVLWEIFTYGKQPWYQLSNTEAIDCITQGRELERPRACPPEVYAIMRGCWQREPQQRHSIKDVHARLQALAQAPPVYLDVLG
Experimental: as §2, §3, §4, §5, §6, §7

[12] = target: T10, NTRK2 (Homo sapiens, UniProt Q16620); test: NanoBRET K192 assay (Promega); assay type: cell-based; settings: HEK293 cells
T10 construct: against 192 full-length protein kinases in human embryonic kidney 293 (HEK293) cells; host or cells: HEK293
T10 sequence (Q16620 32-822): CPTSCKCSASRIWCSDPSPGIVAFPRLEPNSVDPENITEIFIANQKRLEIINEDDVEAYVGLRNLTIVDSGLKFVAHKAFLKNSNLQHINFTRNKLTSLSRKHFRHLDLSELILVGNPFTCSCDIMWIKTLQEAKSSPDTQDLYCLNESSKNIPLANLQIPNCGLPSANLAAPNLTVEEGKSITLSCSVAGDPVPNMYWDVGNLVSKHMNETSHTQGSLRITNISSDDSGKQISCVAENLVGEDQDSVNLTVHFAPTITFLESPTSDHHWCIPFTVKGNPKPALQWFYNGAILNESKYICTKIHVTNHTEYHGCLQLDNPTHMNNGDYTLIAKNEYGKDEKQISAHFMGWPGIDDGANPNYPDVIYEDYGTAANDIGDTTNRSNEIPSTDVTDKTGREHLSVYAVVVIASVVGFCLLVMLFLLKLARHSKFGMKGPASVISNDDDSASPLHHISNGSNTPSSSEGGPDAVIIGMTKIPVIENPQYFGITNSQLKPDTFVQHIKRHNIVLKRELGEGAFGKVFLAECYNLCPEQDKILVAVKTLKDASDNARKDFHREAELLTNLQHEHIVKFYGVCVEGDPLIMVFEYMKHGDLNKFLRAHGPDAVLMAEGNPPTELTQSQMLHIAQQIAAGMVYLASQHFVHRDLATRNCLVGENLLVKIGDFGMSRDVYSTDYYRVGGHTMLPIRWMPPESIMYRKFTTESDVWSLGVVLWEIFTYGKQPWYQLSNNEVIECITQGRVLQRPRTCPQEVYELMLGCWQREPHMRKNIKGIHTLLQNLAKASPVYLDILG
Experimental: as §2, §3, §4, §5, §6, §7

[13] = target: T11, PHKG1 (Homo sapiens, UniProt Q16816); test: NanoBRET K192 assay (Promega); assay type: cell-based; settings: HEK293 cells
T11 construct: against 192 full-length protein kinases in human embryonic kidney 293 (HEK293) cells; host or cells: HEK293
Experimental: as §2, §3, §4, §5, §6, §7

[14] = target: T12, PHKG2 (Homo sapiens, UniProt P15735); test: NanoBRET K192 assay (Promega); assay type: cell-based; settings: HEK293 cells
T12 construct: against 192 full-length protein kinases in human embryonic kidney 293 (HEK293) cells; host or cells: HEK293
Experimental: as §2, §3, §4, §5, §6, §7

[15] = target: T13, PTK2 (Homo sapiens, UniProt Q05397); test: NanoBRET K192 assay (Promega); assay type: cell-based; settings: HEK293 cells
T13 construct: against 192 full-length protein kinases in human embryonic kidney 293 (HEK293) cells; host or cells: HEK293
Experimental: as §2, §3, §4, §5, §6, §7

[16] = target: T14, PTK2B (Homo sapiens, UniProt Q14289); test: NanoBRET K192 assay (Promega); assay type: cell-based; settings: HEK293 cells
T14 construct: against 192 full-length protein kinases in human embryonic kidney 293 (HEK293) cells; host or cells: HEK293
T14 sequence (Q14289 whole entry): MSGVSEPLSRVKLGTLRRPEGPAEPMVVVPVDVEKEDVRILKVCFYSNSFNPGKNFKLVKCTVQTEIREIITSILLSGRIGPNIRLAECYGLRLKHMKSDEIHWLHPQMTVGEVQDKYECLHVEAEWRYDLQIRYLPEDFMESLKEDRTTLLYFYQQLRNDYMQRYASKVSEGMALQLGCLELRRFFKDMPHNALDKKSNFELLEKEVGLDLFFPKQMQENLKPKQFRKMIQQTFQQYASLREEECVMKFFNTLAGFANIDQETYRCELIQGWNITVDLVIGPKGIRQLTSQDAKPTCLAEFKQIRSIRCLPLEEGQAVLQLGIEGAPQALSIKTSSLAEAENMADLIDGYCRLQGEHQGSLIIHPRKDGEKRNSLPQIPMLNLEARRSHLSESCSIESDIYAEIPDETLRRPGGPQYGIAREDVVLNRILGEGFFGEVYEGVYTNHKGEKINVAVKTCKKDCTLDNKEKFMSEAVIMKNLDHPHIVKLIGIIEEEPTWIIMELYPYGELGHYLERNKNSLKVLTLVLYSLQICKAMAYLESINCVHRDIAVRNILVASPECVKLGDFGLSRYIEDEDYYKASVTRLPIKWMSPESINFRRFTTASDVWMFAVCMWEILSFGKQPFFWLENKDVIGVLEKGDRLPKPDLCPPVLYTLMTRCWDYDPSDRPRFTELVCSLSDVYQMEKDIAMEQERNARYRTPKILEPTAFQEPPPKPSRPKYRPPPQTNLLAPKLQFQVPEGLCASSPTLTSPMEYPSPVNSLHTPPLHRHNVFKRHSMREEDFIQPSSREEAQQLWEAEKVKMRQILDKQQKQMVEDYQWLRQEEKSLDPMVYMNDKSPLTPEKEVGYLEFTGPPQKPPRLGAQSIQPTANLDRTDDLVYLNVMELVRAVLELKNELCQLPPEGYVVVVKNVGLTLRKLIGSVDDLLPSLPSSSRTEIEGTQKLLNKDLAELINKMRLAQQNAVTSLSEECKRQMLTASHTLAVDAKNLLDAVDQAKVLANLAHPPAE
Experimental: as §2, §3, §4, §5, §6, §7

[17] = target: T15, STK4 (Homo sapiens, UniProt Q13043); test: NanoBRET K192 assay (Promega); assay type: cell-based; settings: HEK293 cells
T15 construct: against 192 full-length protein kinases in human embryonic kidney 293 (HEK293) cells; host or cells: HEK293
Experimental: as §2, §3, §4, §5, §6, §7

[18] = system: male mice; test: Testis size of treated mice; assay type: in vivo

In the case of `O=C(c1ccc2[nH]nc(C#Cc3ccccc3-c3ccccc3)c2c1)N1CC2(CCCNC2)C1` [CDD-2807], the “Metabolic stability MLM, t1/2” value ([1]; 2.0 µM, 0.5 mg protein/mL, NADPH, data >60 min is an extrapolated estimate) is reported as greater than 1 h, the “Metabolic stability in MLM” value ([1]; Phase I metabolism) is reported as ~ 1 hour and the “Metabolic stability in MLM” value ([1]; Phases I and II metabolism) is reported as ~ 50 minutes. The half-life at 2 µM ([1]; 2.0 µM, 0.5 mg protein/mL, NADPH, data >60 min is an extrapolated estimate, read-out: Metabolic stability MLM, t1/2) was 1.18 h, the half-life at 2 µM ([1]; NADPH with UDP-GA (2.5 mM), alamethicin, read-out: MLM, t1/2, liver microsomes with glucuronidation) was 0.833 h and the “Metabolic stability in HLM” value ([2]; Phase I metabolism) was ~ 10 hours. The “Metabolic stability in HLM” value ([2]; Phases I and II metabolism) was ~ 6 hours, the half-life at 2 µM ([2]; human, liver microsomes, NADPH with UDP-GA (2.5 mM), alamethicin, read-out: HLM, t1/2, liver microsomes with glucuronidation) was 6.47 h and the receptor occupancy at 1 µM [3] was 56.4 ± 1.3%. It also gave a receptor occupancy at 1 µM [4] of 54.5 ± 0.3%, a receptor occupancy at 1 µM [5] of 32.4 ± 1.3% and a receptor occupancy at 1 µM [6] of 30.6 ± 2.4%. The receptor occupancy at 1 µM [7] was 38 ± 1.2%, the receptor occupancy at 1 µM [8] was 30.3 ± 2.6% and the receptor occupancy at 1 µM [9] was 57.4 ± 0.1%. It also gave a receptor occupancy at 1 µM [10] of 40 ± 0.6%, a receptor occupancy at 1 µM [11] of 31.8 ± 1% and a receptor occupancy at 1 µM [12] of 44.5%. The receptor occupancy at 1 µM [13] was 58.4 ± 2.9%, the receptor occupancy at 1 µM [14] was 59.2 ± 1.2% and the receptor occupancy at 1 µM [15] was 76.5 ± 0.2%. The receptor occupancy at 1 µM [16] was 45.2 ± 0.2%, the receptor occupancy at 1 µM [17] was 30.3 ± 0.4% and the testis size ([18]; 50 mg/kg/day for 7 days (Protocol 3)) was “did not alter”. The testis size ([18]; protocol 1 at day 45) was “normal” and the testis size ([18]; protocol 2 at 63 days) was 87.13 ± 5.87 mg.
